# Source: ChEMBL document CHEMBL5506024, “Multitarget μ-Opioid Receptor Agonists─Neuropeptide FF Receptor Antagonists Induce Potent Antinociception with Reduced Adverse Side Effects” (J Med Chem, 2024)
# Calls of active or inactive are those of the source. The calls are words filed in the database; no cut-off is given here. Numbered stars: 1 amine (or outer) side, 2 acyl side, 3 side chain; on linkers, the order of the positions; unused ones are H or OH. Square brackets hold non-standard residues; d marks the D form. Peptide text beside a SMILES is read from it. Nva(5-(4-Bn-piperidin-1-yl)) = N[C@@H](CCCN1CCC(Cc2ccccc2)CC1)C(=O)O; X1 = O=C1[C@@H](N[*:1])Cc2ccccc2CN1CCC(=O)[*:2]; Dmt = Cc1cc(O)cc(C)c1C[C@H](N)C(=O)O
# Assays:
# [1] = biological target: T1, Neuropeptide FF receptor 1 (Homo sapiens, UniProt Q9GZQ6); assay: Displacement of [125I]-1DMeNPFF from human NPFFR1 expressed in CHO cell membrane at 0.5 uM incubated for 1 hr by Topcount counting method relative to control; type: cell membranes
# T1 sequence (Q9GZQ6 whole entry): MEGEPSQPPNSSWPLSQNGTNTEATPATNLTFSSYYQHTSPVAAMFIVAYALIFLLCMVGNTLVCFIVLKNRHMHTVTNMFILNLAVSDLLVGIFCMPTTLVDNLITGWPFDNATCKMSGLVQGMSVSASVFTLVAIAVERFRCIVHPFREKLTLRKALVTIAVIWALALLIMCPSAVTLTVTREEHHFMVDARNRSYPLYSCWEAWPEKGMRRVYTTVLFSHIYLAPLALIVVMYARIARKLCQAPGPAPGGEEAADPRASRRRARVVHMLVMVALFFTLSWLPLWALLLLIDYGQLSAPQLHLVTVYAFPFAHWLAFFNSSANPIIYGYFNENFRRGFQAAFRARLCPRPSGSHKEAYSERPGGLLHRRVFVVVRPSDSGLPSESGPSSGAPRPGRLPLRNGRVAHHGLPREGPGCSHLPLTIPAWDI
# [2] = biological target: T2, Prolactin-releasing peptide receptor (Homo sapiens) (UniProt P49683); assay: Antagonist activity at human GPR10 expressed in CHO cells assessed as intracellular calcium release upto 10 uM by Fluo-4 AM dye based calcium mobilization assay; type: functional, cell-based
# T2 sequence (whole entry): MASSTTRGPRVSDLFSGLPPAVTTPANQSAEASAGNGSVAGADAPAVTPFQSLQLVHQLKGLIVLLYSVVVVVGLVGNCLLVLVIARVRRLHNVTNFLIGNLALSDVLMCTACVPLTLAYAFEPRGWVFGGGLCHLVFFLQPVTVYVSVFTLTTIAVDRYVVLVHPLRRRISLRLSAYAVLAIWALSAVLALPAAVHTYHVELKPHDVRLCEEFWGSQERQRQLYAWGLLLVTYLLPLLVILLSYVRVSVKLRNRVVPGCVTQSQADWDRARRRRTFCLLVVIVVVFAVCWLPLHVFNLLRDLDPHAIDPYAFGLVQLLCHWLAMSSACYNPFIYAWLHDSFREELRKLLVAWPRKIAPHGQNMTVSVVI
# Mu-type opioid receptor [3] = biological target: T3, Mu-type opioid receptor (Homo sapiens, UniProt P35372); assay: Agonist activity at human MOP expressed in HEK293 cells coexpressing GloSensor-20F assessed as inhibition of forskolin-induced cAMP accumulation relative to control; type: functional, cell-based; conditions: filed as agonist
# T3 sequence (P35372 whole entry): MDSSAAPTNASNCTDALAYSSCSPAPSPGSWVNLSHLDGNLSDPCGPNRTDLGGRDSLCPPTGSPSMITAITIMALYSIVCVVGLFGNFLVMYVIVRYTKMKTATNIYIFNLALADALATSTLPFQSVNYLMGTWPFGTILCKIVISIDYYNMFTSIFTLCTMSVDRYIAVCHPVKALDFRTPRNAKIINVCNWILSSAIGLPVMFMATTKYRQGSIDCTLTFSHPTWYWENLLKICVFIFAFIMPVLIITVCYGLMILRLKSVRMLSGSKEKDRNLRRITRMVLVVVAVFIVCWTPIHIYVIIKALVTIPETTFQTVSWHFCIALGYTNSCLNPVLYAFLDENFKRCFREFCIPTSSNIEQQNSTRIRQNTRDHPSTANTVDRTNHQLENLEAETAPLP
# [4] = biological target: T4, Neuropeptide FF receptor 2 (Homo sapiens, UniProt Q9Y5X5); assay: Displacement of [125I]-1DMeNPFF from human NPFFR2 expressed in CHO cell membrane at 0.05 uM incubated for 1 hr by Topcount counting method relative to control; type: cell membranes; conditions: filed as antagonist
# T4 sequence (Q9Y5X5 whole entry): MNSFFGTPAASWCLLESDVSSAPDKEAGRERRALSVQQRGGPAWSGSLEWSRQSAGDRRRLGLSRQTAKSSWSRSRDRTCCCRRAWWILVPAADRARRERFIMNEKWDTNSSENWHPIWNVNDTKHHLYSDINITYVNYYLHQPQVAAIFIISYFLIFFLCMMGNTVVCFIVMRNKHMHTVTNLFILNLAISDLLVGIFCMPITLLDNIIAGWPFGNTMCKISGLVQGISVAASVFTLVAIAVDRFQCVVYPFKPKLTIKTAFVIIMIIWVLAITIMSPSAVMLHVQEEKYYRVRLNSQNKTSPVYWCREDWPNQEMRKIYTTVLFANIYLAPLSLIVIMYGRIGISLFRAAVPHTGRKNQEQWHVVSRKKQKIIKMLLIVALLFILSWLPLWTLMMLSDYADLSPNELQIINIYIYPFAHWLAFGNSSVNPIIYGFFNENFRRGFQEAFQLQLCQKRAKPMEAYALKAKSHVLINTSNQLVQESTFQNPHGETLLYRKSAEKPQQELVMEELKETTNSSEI
# Mus musculus = assay: Antinociceptive activity in mouse at 2.5 to 10 mg/kg, sc measured after 6 hrs by tail immersion test; type: functional, organism-based; conditions: dose 2.5-10 mg/kg
# [5] = biological target: KiSS-1 receptor (Homo sapiens) (UniProt Q969F8); assay: Agonist activity at human GPR54 expressed in CHO cells assessed as intracellular calcium release upto 10 uM by Fluo-4 AM dye based calcium mobilization assay; type: functional, cell-based
# Sequence of KiSS-1 receptor (Homo sapiens) (Q969F8 whole entry): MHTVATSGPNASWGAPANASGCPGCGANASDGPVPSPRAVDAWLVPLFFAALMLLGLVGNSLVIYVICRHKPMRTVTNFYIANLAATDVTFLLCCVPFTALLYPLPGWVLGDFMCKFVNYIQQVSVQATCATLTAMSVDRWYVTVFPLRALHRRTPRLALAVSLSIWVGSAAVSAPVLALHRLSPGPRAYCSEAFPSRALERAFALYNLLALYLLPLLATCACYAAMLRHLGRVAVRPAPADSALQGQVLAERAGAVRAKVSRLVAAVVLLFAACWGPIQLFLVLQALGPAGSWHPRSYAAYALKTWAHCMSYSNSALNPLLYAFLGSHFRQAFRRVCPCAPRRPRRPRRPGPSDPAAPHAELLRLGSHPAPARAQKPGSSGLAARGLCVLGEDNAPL
# [6] = biological target: T1, Neuropeptide FF receptor 1; assay: Antagonist activity at human NPFFR1 expressed in CHO cell membrane assessed as inhibition of NPVF induced cAMP response at 5 uM incubated for 1 hr by Topcount counting method relative to control; type: functional, cell membranes; set-up: scale not given: the % may be the effect or the level left; conditions: filed as antagonist
# Mu-type opioid receptor [7] = biological target: T3, Mu-type opioid receptor; assay: Agonist activity at human Rluc8-tagged MOP expressed in HEK293 cells coexpressing eYFP-tagged beta-arrestin-2 assessed as beta-arrestin-2 recruitment incubated for 5 mins by luminometer analysis; type: functional, cell-based; conditions: hek293
# [8] = Drug concentration in mouse plasma at 10 mg/kg, sc measured after 2 hrs by LC-MS/MS analysis; type: ADME, organism-based
# [9] = biological target: KiSS-1 receptor (Homo sapiens) (UniProt Q969F8); assay: Antagonist activity at human GPR54 expressed in CHO cells assessed as intracellular calcium release upto 10 uM by Fluo-4 AM dye based calcium mobilization assay; type: functional, cell-based
# [10] = Drug metabolism in human plasma assessed as H-Aba-betaAla-Bpa-Phe-NH2 formation measured upto 270 mins by LC-MS analysis; type: ADME, cell-free; conditions: 4.5 h
# [11] = Half life in mouse at 10 mg/kg, sc measured upto 24 hrs by LC-MS/MS analysis; type: ADME, organism-based; conditions: in vivo
# [12] = Drug metabolism in human plasma assessed as H-Dmt-D-Pro-OH formation measured upto 270 mins by LC-MS analysis; type: ADME, cell-free; conditions: 4.5 h
# [13] = biological target: Delta-type opioid receptor (Homo sapiens) (UniProt P41143); assay: Agonist activity at human DOP expressed in HEK293 cells assessed as inhibition of forskolin-induced cAMP accumulation; type: functional, cell-based; conditions: filed as agonist
# Sequence of Delta-type opioid receptor (Homo sapiens) (P41143 whole entry): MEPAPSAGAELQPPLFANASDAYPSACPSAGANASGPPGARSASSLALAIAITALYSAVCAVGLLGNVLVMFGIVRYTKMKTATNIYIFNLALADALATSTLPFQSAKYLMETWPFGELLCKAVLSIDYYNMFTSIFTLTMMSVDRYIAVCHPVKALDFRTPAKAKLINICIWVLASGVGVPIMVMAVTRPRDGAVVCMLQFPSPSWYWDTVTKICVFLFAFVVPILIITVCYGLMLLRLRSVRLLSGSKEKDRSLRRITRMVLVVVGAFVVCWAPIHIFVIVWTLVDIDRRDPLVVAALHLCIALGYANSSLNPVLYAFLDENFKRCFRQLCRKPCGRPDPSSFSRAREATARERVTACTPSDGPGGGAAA
# [14] = biological target: T4, Neuropeptide FF receptor 2; assay: Antagonist activity at human NPFFR2 expressed in CHO cell membrane assessed as inhibition of NPVF induced cAMP response at 5 uM incubated for 1 hr by Topcount counting method relative to control; type: functional, cell membranes; set-up: scale not given: the % may be the effect or the level left; conditions: filed as antagonist
# [15] = biological target: T5, Pyroglutamylated RF-amide peptide receptor (Homo sapiens) (UniProt Q96P65); assay: Antagonist activity at human GPR103 expressed in CHO cells assessed as intracellular calcium release upto 10 uM by Fluo-4 AM dye based calcium mobilization assay; type: functional, cell-based
# T5 sequence (whole entry): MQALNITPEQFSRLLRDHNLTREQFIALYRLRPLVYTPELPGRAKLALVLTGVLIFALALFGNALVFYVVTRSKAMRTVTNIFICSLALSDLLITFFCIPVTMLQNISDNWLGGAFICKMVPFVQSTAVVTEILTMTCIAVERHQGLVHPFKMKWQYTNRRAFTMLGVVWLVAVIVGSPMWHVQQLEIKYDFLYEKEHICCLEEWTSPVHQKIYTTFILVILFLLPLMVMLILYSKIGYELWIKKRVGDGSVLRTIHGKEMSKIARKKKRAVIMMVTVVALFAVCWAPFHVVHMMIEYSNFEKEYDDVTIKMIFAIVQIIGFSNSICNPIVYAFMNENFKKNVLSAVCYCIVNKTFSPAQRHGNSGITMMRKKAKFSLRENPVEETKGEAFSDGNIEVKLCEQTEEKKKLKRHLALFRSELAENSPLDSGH
# [16] = biological target: T5, Pyroglutamylated RF-amide peptide receptor (Homo sapiens); assay: Agonist activity at human GPR103 expressed in CHO cells assessed as intracellular calcium release upto 10 uM by Fluo-4 AM dye based calcium mobilization assay; type: functional, cell-based
# [17] = biological target: Kappa-type opioid receptor (Homo sapiens, UniProt P41145); assay: Partial agonist activity at human KOR expressed in HEK293 cells assessed as forskolin-induced cAMP accumulation in presence of IBMX; type: functional, cell-based; conditions: filed as partial agonist
# Sequence of Kappa-type opioid receptor (P41145 whole entry): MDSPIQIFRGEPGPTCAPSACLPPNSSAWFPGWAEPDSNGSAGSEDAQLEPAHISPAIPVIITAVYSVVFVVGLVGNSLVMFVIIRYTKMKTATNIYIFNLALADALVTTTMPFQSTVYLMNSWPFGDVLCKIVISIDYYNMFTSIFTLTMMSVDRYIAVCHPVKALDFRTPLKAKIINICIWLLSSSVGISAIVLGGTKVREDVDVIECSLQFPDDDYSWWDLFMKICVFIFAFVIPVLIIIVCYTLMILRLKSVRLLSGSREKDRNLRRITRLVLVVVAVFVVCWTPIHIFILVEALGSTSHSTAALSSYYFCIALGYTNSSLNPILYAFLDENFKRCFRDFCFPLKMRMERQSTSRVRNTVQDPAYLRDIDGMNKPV
# [18] = biological target: T2, Prolactin-releasing peptide receptor (Homo sapiens); assay: Agonist activity at human GPR10 expressed in CHO cells assessed as intracellular calcium release upto 10 uM by Fluo-4 AM dye based calcium mobilization assay; type: functional, cell-based
# [19] = biological target: T1, Neuropeptide FF receptor 1; assay: Displacement of [125I]-1DMeNPFF from human NPFFR1 expressed in CHO cell membrane incubated for 1 hr by Topcount counting method; type: cell membranes
# Mu-type opioid receptor [20] = biological target: T3, Mu-type opioid receptor; assay: Agonist activity at human MOP expressed in HEK293 cells coexpressing GloSensor-20F assessed as inhibition of forskolin-induced cAMP accumulation; type: functional, cell-based
# [21] = Cmax in mouse at 10 mg/kg, sc measured upto 24 hrs by LC-MS/MS analysis; type: ADME, organism-based; conditions: in vivo
# [22] = biological target: T1, Neuropeptide FF receptor 1; assay: Antagonist potency at human NPFFR1 expressed in CHO cell membrane assessed as inhibition of NPVF induced cAMP response incubated for 1 hr by Topcount counting method; type: functional, cell membranes; conditions: read-out: pA2 (converted)
# [23] = biological target: T4, Neuropeptide FF receptor 2; assay: Displacement of [125I]-1DMeNPFF from human NPFFR2 expressed in CHO cell membrane incubated for 1 hr by Topcount counting method; type: cell membranes
# [24] = biological target: T4, Neuropeptide FF receptor 2; assay: Antagonist potency at human NPFFR2 expressed in CHO cell membrane assessed as inhibition of NPVF induced cAMP response incubated for 1 hr by Topcount counting method; type: functional, cell membranes; conditions: read-out: pA2 (converted)
# [25] = Tmax in mouse at 10 mg/kg, sc measured upto 24 hrs by LC-MS/MS analysis; type: ADME, organism-based; conditions: in vivo
# [26] = biological target: Nociceptin receptor (Homo sapiens) (UniProt P41146); assay: Agonist activity at human NOR expressed in HEK293 cells assessed as forskolin-induced cAMP accumulation; type: functional, cell-based
# Sequence of Nociceptin receptor (Homo sapiens) (P41146 whole entry): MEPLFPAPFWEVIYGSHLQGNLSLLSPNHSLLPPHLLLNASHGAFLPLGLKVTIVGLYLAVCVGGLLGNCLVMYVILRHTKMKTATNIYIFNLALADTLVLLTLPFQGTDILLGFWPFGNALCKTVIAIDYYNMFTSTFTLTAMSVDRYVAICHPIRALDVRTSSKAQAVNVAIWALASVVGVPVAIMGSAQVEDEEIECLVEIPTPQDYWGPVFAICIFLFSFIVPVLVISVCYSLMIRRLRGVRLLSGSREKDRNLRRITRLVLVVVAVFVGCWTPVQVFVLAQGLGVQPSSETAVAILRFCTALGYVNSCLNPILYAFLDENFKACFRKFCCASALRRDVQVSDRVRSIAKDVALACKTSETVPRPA
compound,measurement,setting,value
Cc1cc(O)cc(C)c1C[C@H](N)C(=O)N1CCC[C@@H]1C(=O)N[C@H]1Cc2ccccc2CN(CCC(=O)N[C@@H](CCCN2CCC(Cc3ccccc3)CC2)C(=O)N[C@@H](Cc2ccccc2)C(N)=O)C1=O (H-[Dmt][dP][X1][Nva(5-(4-Bn-piperidin-1-yl))]F-NH2),Activity,[1],33%
same,Activity,[2],inactive
same,Emax,Mu-type opioid receptor [3],50%
same,Activity,[4],72%
same,Activity,Mus musculus,Active
same,Activity,[5],inactive
same,Activity,[6],75%
same,EC50,Mu-type opioid receptor [7],Not Active
same,concentration at 2 h,[8],10.7 nM
same,Activity,[9],inactive
same,Drug metabolism,[10],Metabolite_Detected
same,half-life,[11],16.8 min
same,Drug metabolism,[12],Metabolite_Detected
same,Activity,[13],Active
same,Activity,[14],46%
same,Activity,[15],inactive
same,Activity,[16],inactive
same,Activity,[17],Active
same,Activity,[18],inactive
same,Ki,[19],1190 nM
same,EC50,Mu-type opioid receptor [20],8 nM
same,Cmax,[21],345 nM
same,Kb,[22],6310 nM
same,Ki,[23],29 nM
same,Kb,[24],380 nM
same,Tmax,[25],8.34 min
same,Activity,[26],inactive
